21 compounds from patent US20240083857A1, “2-Methyl-Quinazolines” (Bayer Pharma Aktiengesellschaft, priority 2017, published 2024) can be followed below.

Assay [1] concerns the target human SOS1 (loading of human K-Ras^G12C-GDP with fluorescent GTP-analog) (Homo sapiens, UniProt Q07889). Briefly: Biochemical assay 3: K-Ras^G12C activation assay by hSOS1 (HTRF). The settings on record: for inhibition at 20 µM: read-out: Assay 3 (KRAS-Activation by SOS no GTP) activity expressed as % inhibition at 20 μM. For orientation: Time-resolved FRET reads energy transfer from a long-lived donor to a nearby acceptor.

Assay [2] addresses Epidermal Growth Factor Receptor (EGFR) (Homo sapiens (Human), UniProt P00533). Briefly: EGFR kinase assay (TR-FRET). Type of assay: biochemical. An excerpt: EGFR inhibitory activity of compounds of the present invention was quantified employing the TR-FRET based EGFR assay as described in the following paragraphs.
Epidermal Growth Factor Receptor (EGFR) affinity purified from human carcinoma A431 cells (Sigma-Aldrich, #E3641) was used as kinase. As substrate for the kinase reaction the biotinylated peptide biotin-Ahx-[…] (SEQ ID NO 5) (C-terminus in amid form) was used which can be purchased e.g. form the company Biosyntan GmbH (Berlin-Buch, Germany).
For the assay 50 nL of a 100 fold concentrated solution of the test compound in DMSO was pipetted into a black low volume 384 well microtiter plate (Greiner Bio-One, Frickenhausen, Germany), 2 μL of a solution of EGFR in aqueous assay buffer [50 mM Hepes/HCl pH 7.0, 1 mM MgCl2, 5 mM MnCl2, 0.5 mM activated sodium ortho-vanadate, 0.005% (v/v) Tween-20]were added and the mixture was incubated for 15 min at 22° C. to allow pre-binding of the test compounds to the enzyme before the start of the kinase reaction. […] The concentration of EGFR was adjusted depending of the activity of the enzyme lot and was chosen appropriate to have the assay in the linear range, typical concentration were about 3 U/ml. The reaction was stopped by the addition of 5 μl of a solution of HTRF detection reagents (0.1 μM streptavidine-XL665 [Cis Biointernational] and 1 nM PT66-Tb-Cryptate, an terbium-cryptate labelled anti-phospho-tyrosine antibody from Cis Biointernational [instead of the PT66-Tb-cryptate PT66-Eu-Chelate from Perkin Elmer can also be used]) in an aqueous EDTA-solution (80 mM EDTA, 0.2% (w/v) bovine serum albumin in 50 mM HEPES pH 7.5).
The resulting mixture was incubated 1 h at 22° C. to allow the binding of the biotinylated phosphorylated peptide to the streptavidine-XL665 and the PT66-Eu-Chelate. Subsequently the amount of phosphorylated substrate was evaluated by measurement of the resonance energy transfer from the PT66-Tb-Cryptate to the streptavidine-XL665. Therefore, the fluorescence emissions at 620 nm and 665 nm after excitation at 337 nm were measured in a HTRF reader, e.g. a Pherastar (BMG Labtechnologies, Offenburg, Germany) or a Viewlux (Perkin-Elmer). The ratio of the emissions at 665 nm and at […] was taken as the measure for the amount of phosphorylated substrate.

Where [3] appears, read: E-notation values, unit inferred, read-out: Assay 3 (KRAS-Activation) IC50.
[4] abbreviates: E-notation values, unit inferred, read-out: EGFR-assay IC50.
Setting [5] is: values given in μM, read-out: EGFR kinase inhibition IC50.
Setting [6] is: no GTP, read-out: Assay 3 (KRAS-Activation by SOS no GTP) activity expressed as IC50.
The mark [7] stands for this setting: in μM, read-out: EGFR-assay IC50.

Read-outs that look alike come from different tables or passages of the source.

Sequence of Epidermal Growth Factor Receptor (EGFR) (P00533 25-1210): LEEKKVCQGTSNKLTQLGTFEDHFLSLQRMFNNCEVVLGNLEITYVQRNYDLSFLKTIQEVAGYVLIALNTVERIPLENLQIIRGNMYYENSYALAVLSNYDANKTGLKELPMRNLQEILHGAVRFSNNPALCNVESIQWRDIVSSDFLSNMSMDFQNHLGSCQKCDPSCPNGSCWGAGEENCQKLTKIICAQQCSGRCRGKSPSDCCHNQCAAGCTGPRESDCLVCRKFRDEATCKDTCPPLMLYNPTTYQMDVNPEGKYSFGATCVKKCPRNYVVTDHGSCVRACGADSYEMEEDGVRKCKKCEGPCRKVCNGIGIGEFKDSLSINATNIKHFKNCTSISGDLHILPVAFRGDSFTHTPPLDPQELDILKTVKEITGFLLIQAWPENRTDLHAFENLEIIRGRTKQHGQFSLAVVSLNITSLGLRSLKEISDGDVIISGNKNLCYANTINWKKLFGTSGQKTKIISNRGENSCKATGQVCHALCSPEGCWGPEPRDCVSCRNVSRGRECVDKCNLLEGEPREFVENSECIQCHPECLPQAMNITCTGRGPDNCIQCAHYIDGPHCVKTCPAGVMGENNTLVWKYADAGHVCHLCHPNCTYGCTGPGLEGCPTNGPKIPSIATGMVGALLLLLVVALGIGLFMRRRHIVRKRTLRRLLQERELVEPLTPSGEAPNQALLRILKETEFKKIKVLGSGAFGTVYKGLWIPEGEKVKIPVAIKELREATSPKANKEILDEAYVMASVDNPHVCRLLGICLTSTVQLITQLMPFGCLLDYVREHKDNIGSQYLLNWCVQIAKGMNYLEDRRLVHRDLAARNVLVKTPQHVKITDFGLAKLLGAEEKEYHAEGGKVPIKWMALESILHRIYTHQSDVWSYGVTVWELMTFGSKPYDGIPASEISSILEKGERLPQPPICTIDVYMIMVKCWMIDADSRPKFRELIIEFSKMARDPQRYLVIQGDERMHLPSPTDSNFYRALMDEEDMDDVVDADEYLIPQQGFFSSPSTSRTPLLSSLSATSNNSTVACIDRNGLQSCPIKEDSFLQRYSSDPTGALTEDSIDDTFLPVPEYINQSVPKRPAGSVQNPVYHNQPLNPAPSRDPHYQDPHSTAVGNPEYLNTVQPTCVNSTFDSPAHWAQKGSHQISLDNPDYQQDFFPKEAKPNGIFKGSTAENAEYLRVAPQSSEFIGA

The term IC50 denotes the midpoint of a concentration-inhibition curve. Regarding `COc1cc2nc(C)nc(NC(C)c3ccc(-c4ccccc4CN(C)C)s3)c2cc1OC` (single isomer, unassigned) [Example 390, N-[1-(5-{2-[(dimethylamino)methyl]phenyl}thiophen-2-yl)ethyl]-6,7-dimethoxy-2-methylquinazolin-4-amine], the IC50 in assay [1] (setting [3]) is 12.9 µM; in assay [2] (setting [4]), over 20 µM.
For `COc1cc2nc(C)nc(NC(C)c3ccc(-c4ccccc4CN(C)C)s3)c2cc1OC` (single isomer, unassigned) [Example 391, N-[1-(5-{2-[(dimethylamino)methyl]phenyl}thiophen-2-yl)ethyl]-6,7-dimethoxy-2-methylquinazolin-4-amine] the same measures were 0.0379 µM and over 20 µM.
As usually defined, the inhibition is how much of the control response was suppressed. Turning to `COc1cc2nc(C)nc(NC(C)c3ccc(=O)[nH]c3)c2cc1OC` (single isomer, unassigned; enantiomer 1) [Example 227, 5-{1-[(6,7-dimethoxy-2-methylquinazolin-4-yl)amino]ethyl}pyridin-2(1H)-one, Enantiomer 1], the inhibition at 20 µM in assay [1] (no GTP) was found to be 34%. For the same compound, in assay [2] (setting [5]), the IC50 was over 20 µM.
`COc1cc2nc(C)nc(NC(C)c3c(C)ccc4[nH]ncc34)c2cc1OC` (stereo not drawn) [Example 7, 6,7-dimethoxy-2-methyl-N-[1-(5-methyl-1H-indazol-4-yl)ethyl]quinazolin-4-amine]: the inhibition at 20 µM in assay [1] (no GTP) was 33%. Besides, the IC50 in assay [2] (setting [5]) is over 20 µM.
For `COc1cc2nc(C)nc(NC(C)c3ccc(-n4ccc(CCO)n4)o3)c2cc1OC` (stereo not drawn) [Example 226, 2-[1-(5-{1-[(6,7-dimethoxy-2-methylquinazolin-4-yl)amino]ethyl}furan-2-yl)-1H-pyrazol-3-yl]ethanol] the same measures were 24% and over 20 µM.
For `COc1cc2nc(C)nc(NC(C)c3ccc(C4=CCCC4)s3)c2cc1OC` (stereo not drawn) [Example 231, N-{1-[5-(cyclopent-1-en-1-yl)thiophen-2-yl]ethyl}-6,7-dimethoxy-2-methylquinazolin-4-amine] the same measures were 24% and over 20 µM.
The corresponding values for `COc1cc2nc(C)nc(NC(C)c3ccc(-c4ccc(CNC(=O)OC(C)(C)C)o4)s3)c2cc1OC` (stereo not drawn) [Example 236, tert-butyl {[5-(5-{1-[(6,7-dimethoxy-2-methylquinazolin-4-yl)amino]ethyl}thiophen-2-yl)furan-2-yl]methyl}carbamate] are 17% and over 20 µM.
With `COC(=O)c1cc(-c2ccc(C(C)Nc3nc(C)nc4cc(OC)c(OC)cc34)s2)nn1C` (stereo not drawn) [Example 237, methyl 3-(5-{1-[(6,7-dimethoxy-2-methylquinazolin-4-yl)amino]ethyl}thiophen-2-yl)-1-methyl-1H-pyrazole-5-carboxylate], in assay [1] (no GTP), the inhibition at 20 µM worked out at 10%. For the same compound, in assay [2] (setting [5]), the IC50 is over 20 µM.
In the case of `COc1cc2nc(C)nc(NC(C)c3ccc(-c4ccc(F)cc4CNC(=O)c4cc5ccccc5[nH]4)s3)c2cc1OC` (stereo not drawn) [Example 296, N-[2-(5-{1-[(6,7-dimethoxy-2-methylquinazolin-4-yl)amino]ethyl}thiophen-2-yl)-5-fluorobenzyl]-1H-indole-2-carboxamide], the figures for the IC50 in assay [1] (setting [6]) and in assay [2] (setting [5]) were 11.8 µM and over 20 µM, respectively.
For `COc1cc2nc(C)nc(NC(C)c3ccc(-c4ccccc4CN4CCN(C(=O)OC(C)(C)C)CC4)s3)c2cc1OC` (stereo not drawn) [Example 306, tert-butyl 4-[2-(5-{1-[(6,7-dimethoxy-2-methylquinazolin-4-yl)amino]ethyl}thiophen-2-yl)benzyl]piperazine-1-carboxylate] the same measures were 7.94 µM and over 20 µM.
In the case of `COc1cc2nc(C)nc(NC(C)c3ccc(-c4ccccc4CNc4ccccc4)s3)c2cc1OC` (stereo not drawn) [Example 362, 6,7-dimethoxy-2-methyl-N-[1-(5-{2-[(phenylamino)methyl]phenyl}thiophen-2-yl)ethyl]quinazolin-4-amine], the inhibition at 20 µM in assay [1] (no GTP) is 30%. The IC50 in assay [2] (setting [5]) was over 20 µM.
For the compound `COCCNCc1ccccc1-c1ccc(C(C)Nc2nc(C)nc3cc(OC)c(OC)cc23)s1` (stereo not drawn) [Example 369, 6,7-dimethoxy-N-{1-[5-(2-{[(2-methoxyethyl)amino]methyl}phenyl)thiophen-2-yl]ethyl}-2-methylquinazolin-4-amine], the IC50 was 0.169 µM in assay [1] (setting [3]) and over 20 µM in assay [2] (setting [7]).
As to `COc1cc2nc(C)nc(NC(C)c3ccc(-c4ccccc4CNC4CC4)s3)c2cc1OC` (stereo not drawn) [Example 370, N-[1-(5-{2-[(cyclopropylamino)methyl]phenyl}thiophen-2-yl)ethyl]-6,7-dimethoxy-2-methylquinazolin-4-amine], the IC50 in assay [1] (setting [3]) was 0.363 µM; in assay [2] (setting [7]), over 20 µM.
For `COC(=O)c1ccc2nc(C)nc(N[C@H](C)c3cccc(Cl)c3)c2c1` [Example 371, methyl 4-{[(1R)-1-(3-chlorophenyl)ethyl]amino}-2-methylquinazoline-6-carboxylate] the same measures were 3.35 µM and over 20 µM.
For `Cc1nc(N[C@H](C)c2cccc(Cl)c2)c2cc(CO)ccc2n1` [Example 373, (4-{[(1R)-1-(3-chlorophenyl)ethyl]amino}-2-methylquinazolin-6-yl)methanol] the same measures were 9.21 µM and over 20 µM.
For `COc1cc2nc(C)nc(NC(C)c3ccc(-c4ccccc4C(O)c4ccccc4)s3)c2cc1OC` (stereo not drawn) [Example 374, [2-(5-{1-[(6,7-dimethoxy-2-methylquinazolin-4-yl)amino]ethyl}thiophen-2-yl)-phenyl](phenyl)methanol] the same measures were 6.5 µM and over 20 µM.
As to `COc1cc2nc(C)nc(NC(C)c3ccc(-c4ccccc4C(O)Cc4ccccc4)s3)c2cc1OC` (stereo not drawn) [Example 376, 1-[2-(5-{1-[(6,7-dimethoxy-2-methylquinazolin-4-yl)amino]ethyl}thiophen-2-yl)phenyl]-2-phenylethanol], the IC50 was 17.9 µM in assay [1] (setting [3]) and over 20 µM in assay [2] (setting [7]).
Consider `CCCCC(O)c1ccccc1-c1ccc(C(C)Nc2nc(C)nc3cc(OC)c(OC)cc23)s1` (stereo not drawn) [Example 377, 1-[2-(5-{1-[(6,7-dimethoxy-2-methylquinazolin-4-yl)amino]ethyl}thiophen-2-yl)phenyl]pentan-1-ol], for which the IC50 is 15.1 µM in assay [1] (setting [3]) and over 20 µM in assay [2] (setting [7]).
The corresponding values for `C#CC(O)c1ccccc1-c1ccc(C(C)Nc2nc(C)nc3cc(OC)c(OC)cc23)s1` (stereo not drawn) [Example 378, 1-[2-(5-{1-[(6,7-dimethoxy-2-methylquinazolin-4-yl)amino]ethyl}thiophen-2-yl)phenyl]prop-2-yn-1-ol] are 1.45 µM and over 20 µM.
For `COc1cc2nc(C)nc(NC(C)c3ccc(-c4ccccc4C(O)C(C)C)s3)c2cc1OC` (stereo not drawn) [Example 379, 1-[2-(5-{1-[(6,7-dimethoxy-2-methylquinazolin-4-yl)amino]ethyl}thiophen-2-yl)phenyl]-2-methylpropan-1-ol] the same measures were 1.63 µM and over 20 µM.
As to `COc1cc2nc(C)nc(NC(C)c3ccc(-c4ccccc4C(O)C(F)(F)F)s3)c2cc1OC` (stereo not drawn) [Example 380, 1-[2-(5-{1-[(6,7-dimethoxy-2-methylquinazolin-4-yl)amino]ethyl}thiophen-2-yl)phenyl]-2,2,2-trifluoroethanol], the values for the IC50 in assay [1] (setting [3]) and in assay [2] (setting [7]) were 2.74 µM and over 20 µM, respectively.
